Like-named read-outs stand apart in the source and are kept apart here.
Target: T1, E. coli CsgA (Escherichia coli, UniProt P28307)
T1 construct: made in house; host or cells: E. coli NEB 3016 slyD::kan, pET11d
Test: In vitro ThioflavinT assay of CsgA aggregation (CsgA ThT Assay)
Type: biochemical
Settings: 1005 minutes; for remaining activity at 25 µM: compound 25 μM; for remaining activity at 100 µM: compound 100 μM
How it was run: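 Purified C-terminal His-tagged CsgA, monomerised by desalting and 30-kDa filtration, at 2-20 μM with 20-40 μM ThT in 50 mM potassium phosphate pH 7.3, 1% DMSO, compounds 3.125-200 uM; room temperature, fluorescence (ex 438/em 495 nm) read every 15 min. Background-subtracted signal expressed as percent inhibition versus vehicle at 6-6.5 or 8-9 h, or as percent control AUC.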

[1] = read-out: CsgA ThT Assay (10 μM CsgA) % Control AUC at 1005 minutes, 25 μM (activity range), CsgA 10 μM, black plates, class symbol
[2] = read-out: CsgA ThT Assay (10 μM CsgA) % Control AUC at 1005 minutes, 25 μM, mean AUC as % of DMSO control, CsgA 10 μM, black plates
[3] = read-out: CsgA ThT Assay (10 μM CsgA) % Control AUC at 1005 minutes, 100 μM (activity range), CsgA 10 μM, black plates, class symbol
[4] = read-out: CsgA ThT Assay (10 μM CsgA) % Control AUC at 1005 minutes, 100 μM, mean AUC as % of DMSO control, CsgA 10 μM, black plates

T1 sequence (P28307 23-151): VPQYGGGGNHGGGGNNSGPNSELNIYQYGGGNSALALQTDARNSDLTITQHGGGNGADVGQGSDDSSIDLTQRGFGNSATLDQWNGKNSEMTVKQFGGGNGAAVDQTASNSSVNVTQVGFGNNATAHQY

Compound | remaining activity at 25 µM [1] | remaining activity at 25 µM [2] | remaining activity at 100 µM [3] | remaining activity at 100 µM [4]
O=C(O)C1C[S+]([O-])c2c(-c3cccc(C(F)(F)F)c3)c(Cc3cccc4ccccc34)cc(=O)n21 (racemic) [Compound 027b, 7-(naphthalen-1-ylmethyl)-5-oxo-8-(3-(trifluoromethyl)phenyl)-2,3-dihydro-5H-thiazolo[3,2-a]pyridine-3-carboxylic acid 1-oxide] | > 60% | 108% | > 60% | 74%
Nc1c(Cc2cccc3ccccc23)c(-c2cccc(C(F)(F)F)c2)c2n(c1=O)C(C(=O)O)CS2 (racemic) [Compound 020, 6-amino-7-(naphthalen-1-ylmethyl)-5-oxo-8-(3-(trifluoromethyl)phenyl)-2,3-dihydro-5H-thiazolo[3,2-a]pyridine-3-carboxylic acid] | 11 to 31% | 18% | < 10% | 7%
CCCN1CC(C(=O)O)n2c(c(-c3cccc(C(F)(F)F)c3)c(Cc3cccc4ccccc34)cc2=O)S1(=O)=O (racemic) [Compound 016, 8-(naphthalen-1-ylmethyl)-6-oxo-2-propyl-9-(3-(trifluoromethyl)phenyl)-3,4-dihydro-2H,6H-pyrido[1,2-e][1,2,5]thiadiazine-4-carboxylic acid 1,1-dioxide] | 31 to 60% | 48% | 31 to 60% | 33%
CN(C)CCN1CC(C(=O)O)n2c(c(-c3cccc(C(F)(F)F)c3)c(Cc3cccc4ccccc34)cc2=O)S1(=O)=O (stereo not drawn) [Compound 017, 2-(2-(dimethylamino)ethyl)-8-(naphthalen-1-ylmethyl)-6-oxo-9-(3-(trifluoromethyl)phenyl)-3,4-dihydro-2H,6H-pyrido[1,2-e][1,2,5]thiadiazine-4-carboxylic acid 1,1-dioxide] | > 60% | 95% | > 60% | 70%
CN1CC(C(=O)O)n2c1c(-c1cccc(C(F)(F)F)c1)c(Cc1cccc3ccccc13)c(Br)c2=O (stereo not drawn) [Compound 119, 6-bromo-1-methyl-7-(naphthalen-1-ylmethyl)-5-oxo-8-(3-(trifluoromethyl)phenyl)-1,2,3,5-tetrahydroimidazo[1,2-a]pyridine-3-carboxylic acid] | 31 to 60% | 47% | 31 to 60% | 35%
CCCCCN1CC(C(=O)O)n2c(c(-c3cccc(C(F)(F)F)c3)c(Cc3cccc4ccccc34)cc2=O)S1(=O)=O (racemic) [Compound 025, 8-(naphthalen-1-ylmethyl)-6-oxo-2-pentyl-9-(3-(trifluoromethyl)phenyl)-3,4-dihydro-2H,6H-pyrido[1,2-e][1,2,5]thiadiazine-4-carboxylic acid 1,1-dioxide] | 31 to 60% | 49% |  | 
CN1CC(C(=O)O)n2c(c(-c3cccc(C(F)(F)F)c3)c(Cc3cccc4ccccc34)c(C(N)=O)c2=O)S1(=O)=O (stereo not drawn) [Compound 109, 7-carbamoyl-2-methyl-8-(naphthalen-1-ylmethyl)-6-oxo-9-(3-(trifluoromethyl)phenyl)-3,4-dihydro-2H,6H-pyrido[1,2-e][1,2,5]thiadiazine-4-carboxylic acid 1,1-dioxide] | 31 to 60% | 55% | 11 to 31% | 22%
COc1ccc(CN2C[C@@H](C(=O)O)n3c(c(-c4cccc(C(F)(F)F)c4)c(Cc4cccc5ccccc45)cc3=O)S2(=O)=O)cc1 (single isomer, unassigned) [Compound 026a] | 31 to 60% | 41% |  | 
CN1CC(C(N)=O)n2c(c(-c3cccc(C(F)(F)F)c3)c(Cc3cccc4ccccc34)cc2=O)S1(=O)=O (stereo not drawn) [Compound 030, 2-methyl-8-(naphthalen-1-ylmethyl)-6-oxo-9-(3-(trifluoromethyl)phenyl)-3,4-dihydro-2H,6H-pyrido[1,2-e][1,2,5]thiadiazine-4-carboxamide 1,1-dioxide] | > 60% | 82% |  | 
NC(=O)CN1CC(C(=O)O)n2c(c(-c3cccc(C(F)(F)F)c3)c(Cc3cccc4ccccc34)cc2=O)S1(=O)=O (stereo not drawn) [Compound 028, 2-(2-amino-2-oxoethyl)-8-(naphthalen-1-ylmethyl)-6-oxo-9-(3-(trifluoromethyl)phenyl)-3,4-dihydro-2H,6H-pyrido[1,2-e][1,2,5]thiadiazine-4-carboxylic acid 1,1-dioxide] | > 60% | 66% | 11 to 31% | 27%
O=C(O)C1CSc2c(-c3cccc(C(F)(F)F)c3)c(Cc3cccc4ccccc34)cc(=O)n21 (racemic) [Compound 011, 7-(naphthalen-1-ylmethyl)-5-oxo-8-(3-(trifluoromethyl)phenyl)-2,3-dihydro-5H-thiazolo[3,2-a]pyridine-3-carboxylic acid] | > 60% | 63% | > 60% | 62%
C=CCCN1CC(C(=O)O)n2c(c(-c3cccc(C(F)(F)F)c3)c(Cc3cccc4ccccc34)cc2=O)S1(=O)=O (stereo not drawn) [Compound 024, 2-(but-3-en-1-yl)-8-(naphthalen-1-ylmethyl)-6-oxo-9-(3-(trifluoromethyl)phenyl)-3,4-dihydro-2H,6H-pyrido[1,2-e][1,2,5]thiadiazine-4-carboxylic acid 1,1-dioxide] | 31 to 60% | 35% | 31 to 60% | 39%
CN1CC(C(=O)O)n2c(c(-c3cccc(C(F)(F)F)c3)c(Cc3cccc4ccccc34)c(N)c2=O)S1(=O)=O (stereo not drawn) [Compound 074, 7-amino-2-methyl-8-(naphthalen-1-ylmethyl)-6-oxo-9-(3-(trifluoromethyl)phenyl)-3,4-dihydro-2H,6H-pyrido[1,2-e][1,2,5]thiadiazine-4-carboxylic acid 1,1-dioxide] | 11 to 31% | 28% | 11 to 31% | 24%
CCN1CC(C(=O)O)n2c(c(-c3cccc(C(F)(F)F)c3)c(Cc3cccc4ccccc34)cc2=O)S1(=O)=O (single isomer, unassigned) [Compound 015a, 2-ethyl-8-(naphthalen-1-ylmethyl)-6-oxo-9-(3-(trifluoromethyl)phenyl)-3,4-dihydro-2H,6H-pyrido[1,2-e][1,2,5]thiadiazine-4-carboxylic acid 1,1-dioxide] | 11 to 31% | 25% | 11 to 31% | 17%
CCCN1CC(C(=O)O)n2c(c(-c3cccc(C(F)(F)F)c3)c(Cc3cccc4ccccc34)c(NC3CCCC3)c2=O)S1(=O)=O (stereo not drawn) [Compound 126, 7-(cyclopentylamino)-8-(naphthalen-1-ylmethyl)-6-oxo-2-propyl-9-(3-(trifluoromethyl)phenyl)-3,4-dihydro-2H,6H-pyrido[1,2-e][1,2,5]thiadiazine-4-carboxylic acid 1,1-dioxide] | 31 to 60% | 36% | 31 to 60% | 40%
O=C(O)[C@@H]1CS(=O)(=O)c2c(-c3cccc(C(F)(F)F)c3)c(Cc3cccc4ccccc34)cc(=O)n21 (single isomer, unassigned) [Compound 010a, 7-(naphthalen-1-ylmethyl)-5-oxo-8-(3-(trifluoromethyl)phenyl)-2,3-dihydro-5H-thiazolo[3,2-a]pyridine-3-carboxylic acid 1,1-dioxide] | > 60% | 85% | 31 to 60% | 37%
O=C(O)C1CN(CCCO)S(=O)(=O)c2c(-c3cccc(C(F)(F)F)c3)c(Cc3cccc4ccccc34)c(NC3CCCC3)c(=O)n21 (stereo not drawn) [Compound 120, 7-(cyclopentylamino)-2-(3-hydroxypropyl)-8-(naphthalen-1-ylmethyl)-6-oxo-9-(3-(trifluoromethyl)phenyl)-3,4-dihydro-2H,6H-pyrido[1,2-e][1,2,5]thiadiazine-4-carboxylic acid 1,1-dioxide] | 11 to 31% | 28% | 11 to 31% | 12%
O=C(O)C1CN(CCCCCO)S(=O)(=O)c2c(-c3cccc(C(F)(F)F)c3)c(Cc3cccc4ccccc34)c(NC3CCCC3)c(=O)n21 (stereo not drawn) [Compound 122, 7-(cyclopentylamino)-2-(5-hydroxypentyl)-8-(naphthalen-1-ylmethyl)-6-oxo-9-(3-(trifluoromethyl)phenyl)-3,4-dihydro-2H,6H-pyrido[1,2-e][1,2,5]thiadiazine-4-carboxylic acid 1,1-dioxide] | 31 to 60% | 32% | 11 to 31% | 15%
